Read-outs that look alike come from different tables or passages of the source.
Legend:
[1] = test system: acutely dissociated and purified rat OPCs; assay: Acute OL differentiation assay (MBP expression/cell, immunofluorescent image quantification); format: cell-based; conditions: for activation at 2 µM / activation at 10 µM / EC50 / activation at 0.08 µM / activation at 0.4 µM: Rattus norvegicus; for activation at 2 µM / activation at 10 µM / activation at 0.08 µM / activation at 0.4 µM / 2 uM (% Quet) / 10 uM (% Quet): relative to quetiapine, sheet "All OLga data"; for EC50: average EC50 for induction of OL differentiation from independent biological replicates, eight concentrations; for hit in OL differentiation assay, MRF-TMC: ● = confirmed hit in this paper's assay; for promotion of OL differentiation (in words): MBP expression versus 0.1 % DMSO negative control; for activation at 0.08 µM: test compound at 0.08 uM, read-out: 0.08 uM (% Quet)
Procedure, shortened: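 Oligodendrocyte precursor cells were enriched from P6-P7 Sprague–Dawley rat brains by immunopanning (RAN-2 and GalC depletion, O4 selection), plated at 5000 cells/well in serum-free, mitogen-free differentiation media on PDL/laminin 96-well view plates, centrifuged at 200×g, and pre-incubated 1–2 h before test compounds were added in quadruplicate. On DIV4, cells were fixed, stained for MBP and DAPI, imaged automatically, and MBP expression per cell was quantified.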

Mouse OPCs = conditions: ● = hit reported; cited from earlier work
expanded OPCs = assay: cells; conditions: for viability at 0.1 µM / viability at 1 µM / viability at 10 µM: Rattus norvegicus, 72 h
Procedure, shortened: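 Expanded OPCs seeded at 10,000 cells/well in differentiation media, then exposed to NCC library compounds at 10, 1 and 0.1 µM (quadruplicate, 0.1% DMSO) for three days. Viability read as alamarBlue fluorescence (560/590 nm) after 4 h at 37 °C; tunicamycin 5 ng/ml served as toxicity control.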

Rat OPCs, Mouse OPCs = conditions: ● = hit reported; cited from earlier work
[2] = in vivo models; cited from earlier work
Rat OPCs = conditions: ● = hit reported; cited from earlier work
[3] = parameters: method as in Trial NCT00039988; conditions: add-on therapy to capaxone (glatiramir acetate), RRMS patients; ref Trial NCT00039988; cited from earlier work
[4] = clinical trial of MS; cited from earlier work
transplanted hOPCs = test system: transplanted hOPCs; parameters: method as in PMID 25716865; conditions: hypomyelinated shiverer/rag2 brain; cited from earlier work
[5] = 2 uM test compound, read-out: OL differentiation, 2 uM (% Quet)
[6] = 10 uM test compound, read-out: OL differentiation, 10 uM (% Quet)
[7] = read-out: 0.1 µM (% DMSO), alamarBlue viability of expanded OPCs, compound at 0.1 µM, sheet All Tox data
[8] = read-out: 1 µM (% DMSO), alamarBlue viability of expanded OPCs, compound at 1 µM, sheet All Tox data
[9] = read-out: 10 µM (% DMSO), alamarBlue viability of expanded OPCs, compound at 10 µM, sheet All Tox data
[10] = test compound at 0.4 uM, NCC library screen, read-out: 0.4 uM (% Quet)
[11] = read-out: 0.1 µM (% DMSO), alamarBlue viability, NCC library compound at 0.1 µM, sheet "All Tox data"
[12] = read-out: 1 µM (% DMSO), alamarBlue viability, NCC library compound at 1 µM, sheet "All Tox data"
[13] = read-out: 10 µM (% DMSO), alamarBlue viability, NCC library compound at 10 µM, sheet "All Tox data"
[14] = test compound at 2 uM, NCC library screen, read-out: 2 uM (% Quet)
[15] = test compound at 10 uM, NCC library screen, read-out: 10 uM (% Quet)
[16] = alamarBlue viability of expanded OPCs, compound at 0.1 µM, relative to DMSO control
[17] = alamarBlue viability of expanded OPCs, compound at 1 µM, relative to DMSO control
[18] = alamarBlue viability of expanded OPCs, compound at 10 µM, relative to DMSO control
[19] = test compound at 2 uM, NCC library screen
[20] = test compound at 10 uM, NCC library screen
[21] = alamarBlue viability, NCC library compound at 0.1 µM, sheet "All Tox data"
[22] = alamarBlue viability, NCC library compound at 1 µM, sheet "All Tox data"
[23] = alamarBlue viability, NCC library compound at 10 µM, sheet "All Tox data"

With `O[C@@H]1CCCC[C@H]1N1CCC(c2ccccc2)CC1` (racemic) [Vesamicol, reference compound] the activation at 2 µM [1, 5] was 80.7%, the activation at 10 µM [1, 6] was 151% and the EC50 [1] was 1400 nM. For the same molecule, the “hit in OL differentiation assay, MRF-TMC” value [1] was “●”, the “hit in OL differentiation assay, Najm” value (Mouse OPCs) was “●” and the viability at 0.1 µM (expanded OPCs; [7]) was 94.3%. The viability at 1 µM (expanded OPCs; [8]) was 120% and the viability at 10 µM (expanded OPCs; [9]) was 146%.
In the case of `CN1[C@@H]2CC[C@H]1C[C@@H](OC(c1ccccc1)c1ccccc1)C2` [Benztropine], the “hit in OL differentiation assay, Mei” value (Rat OPCs, Mouse OPCs) is given as “●”, the “hit in OL differentiation assay, MRF-TMC” value [1] is given as “●” and the “hit in OL differentiation assay, Najm” value (Mouse OPCs) is given as “●”. The stimulating remyelination [2] was “efficacy in stimulating remyelination” and the “hit in OL differentiation assay, Deshmukh” value (Rat OPCs) was “●”.
For `CN1CCC[C@@H]1CCO[C@](C)(c1ccccc1)c1ccc(Cl)cc1` [Clemastine], the “hit in OL differentiation assay, Mei” value (Rat OPCs, Mouse OPCs) is listed as “●”, the “promotion of OL differentiation (in words)” value [1] is listed as “could promote OL differentiation in our assay similar to benztropine” and the “hit in OL differentiation assay, MRF-TMC” value [1] is listed as “●”. The stimulating remyelination [2] was “efficacy in stimulating remyelination” and the “hit in OL differentiation assay, Deshmukh” value (Rat OPCs) was “●”.
In the case of `OCCN1CCN(CCCN2c3ccccc3Sc3ccc(C(F)(F)F)cc32)CC1` [Fluphenazine, reference compound], the activation at 0.08 µM ([1]; NCC library screen) is reported as 92.6%, the activation at 0.4 µM [1, 10] is reported as -2.7% and the “hit in OL differentiation assay, MRF-TMC” value [1] is reported as “●”. For the same molecule, the viability at 0.1 µM (expanded OPCs; [11]) was 159%, the viability at 1 µM (expanded OPCs; [12]) was 46.8% and the viability at 10 µM (expanded OPCs; [13]) was 9.6%. The “hit in OL differentiation assay, Deshmukh” value (Rat OPCs) was “●”.
In the case of `CC(C)[N+]1(C)[C@@H]2CC[C@H]1C[C@@H](OC(=O)C(CO)c1ccccc1)C2` (stereo partly shown) [Ipatropium, reference compound], the “hit in OL differentiation assay, Mei” value (Rat OPCs, Mouse OPCs) is given as “●”, the activation at 2 µM [1, 14] is given as 21.2% and the activation at 10 µM [1, 15] is given as 38.6%. The EC50 [1] was 8500 nM, the “hit in OL differentiation assay, MRF-TMC” value [1] was “●” and the viability at 0.1 µM (expanded OPCs; [11]) was 92.6%. The viability at 1 µM (expanded OPCs; [12]) was 101%, the viability at 10 µM (expanded OPCs; [13]) was 123% and the “hit in OL differentiation assay, Deshmukh” value (Rat OPCs) was “●”.
For `CCN(CC)CC#CCOC(=O)C(O)(c1ccccc1)C1CCCCC1` (stereo not shown) [Oxybutynin, reference compound], the “hit in OL differentiation assay, Mei” value (Rat OPCs, Mouse OPCs) is listed as “●”, the activation at 2 µM [1, 14] is listed as 91.6% and the “hit in OL differentiation assay, MRF-TMC” value [1] is listed as “●”. The “0.1 µM (% DMSO)” value (expanded OPCs; [16]) was 129.9 % DMSO, the “1 µM (% DMSO)” value (expanded OPCs; [17]) was 169.5 % DMSO and the “10 µM (% DMSO)” value (expanded OPCs; [18]) was 57.5 % DMSO. The “hit in OL differentiation assay, Deshmukh” value (Rat OPCs) was “●”.
`OCCN1CCN(CCCN2c3ccccc3Sc3ccc(Cl)cc32)CC1` [Perphenazine, reference compound] gave an activation at 0.08 µM ([1]; NCC library screen) of 95.7%, an activation at 0.4 µM [1, 10] of 79% and an EC50 [1] of 100 nM. The “hit in OL differentiation assay, MRF-TMC” value [1] was “●”, the “0.1 µM (% DMSO)” value (expanded OPCs; [16]) was 154.3 % DMSO and the “1 µM (% DMSO)” value (expanded OPCs; [17]) was 47.1 % DMSO. For the same molecule, the “10 µM (% DMSO)” value (expanded OPCs; [18]) was 9.2 % DMSO and the “hit in OL differentiation assay, Deshmukh” value (Rat OPCs) was “●”.
For `OCCOCCN1CCN(C2=Nc3ccccc3Sc3ccccc32)CC1` [Quetiapine], the “hit in OL differentiation assay, Mei” value (Rat OPCs, Mouse OPCs) is listed as “●”, the “hit in OL differentiation assay, MRF-TMC” value [1] is listed as “●” and the “hit in OL differentiation assay, Najm” value (Mouse OPCs) is listed as “●”.
With `OCc1cc(C(O)CNCCCCCCOCCCCc2ccccc2)ccc1O` (stereo not shown) [Salmeterol, reference compound] the activation at 0.4 µM [1, 10] was 55.3%, the activation at 2 µM [1, 14] was -32.4% and the EC50 [1] was 400 nM. For the same molecule, the “hit in OL differentiation assay, MRF-TMC” value [1] was “●”, the viability at 0.1 µM (expanded OPCs; [11]) was 115% and the viability at 1 µM (expanded OPCs; [12]) was 108%. The viability at 10 µM (expanded OPCs; [13]) was 9.3% and the “hit in OL differentiation assay, Deshmukh” value (Rat OPCs) was “●”.
For `CC/C(=C(\c1ccccc1)c1ccc(OCCN(C)C)cc1)c1ccccc1` [Tamoxifen, reference compound], the activation at 0.08 µM ([1]; NCC library screen) was 117%, the activation at 0.4 µM [1, 10] was -49.8% and the “hit in OL differentiation assay, MRF-TMC” value [1] was “●”. For the same molecule, the “hit in OL differentiation assay, Najm” value (Mouse OPCs) was “●”, the “0.1 µM (% DMSO)” value (expanded OPCs; [16]) was 162.2 % DMSO and the “1 µM (% DMSO)” value (expanded OPCs; [17]) was 55.1 % DMSO. For the same molecule, the “10 µM (% DMSO)” value (expanded OPCs; [18]) was 9.5 % DMSO.
With `CN1CCN(CCCN2c3ccccc3Sc3ccc(C(F)(F)F)cc32)CC1` [Trifluoperazine, reference compound] the activation at 0.4 µM ([1]; 0.4 uM test compound, read-out: OL differentiation, 0.4 uM (% Quet)) was 155%, the activation at 2 µM [1, 5] was -103% and the EC50 [1] was 200 nM. The “hit in OL differentiation assay, MRF-TMC” value [1] was “●”, the viability at 0.1 µM (expanded OPCs; [7]) was 116% and the viability at 1 µM (expanded OPCs; [8]) was 85.8%. For the same molecule, the viability at 10 µM (expanded OPCs; [9]) was 11.3% and the “hit in OL differentiation assay, Deshmukh” value (Rat OPCs) was “●”.
For `CC(C)(C)NCC(O)c1ccc(O)c(CO)c1` (stereo not shown) [albuterol, reference compound], the “promotion of OL differentiation (in words)” value [1] was “not a hit in our screen”, the activation at 2 µM [1, 5] was -6% and the activation at 10 µM [1, 6] was 18.6%. The clinical outcomes [3] was “improved clinical outcomes”.
In the case of `C[C@]12CC[C@@H]3c4ccc(O)cc4CC[C@H]3[C@@H]1C[C@@H](O)[C@@H]2O` [estriol], the “lesion numbers and volumes” value [4] is listed as “reducing the lesion numbers and volumes”.
For `O=C(O[C@H]1CN2CCC1CC2)N1CCc2ccccc2[C@@H]1c1ccccc1` [solifenacin], the “oligodendrocyte differentiation of transplanted hOPCs” value (transplanted hOPCs) is given as “promoted oligodendrocyte differentiation of transplanted hOPCs”.
With `NC(Cc1cc(I)c(Oc2cc(I)c(O)c(I)c2)c(I)c1)C(=O)O` (stereo not shown) [thyroxine, reference compound] the “promotion of OL differentiation (in words)” value [1] was “able to promote OL differentiation at one or both concentrations tested”, the activation at 2 µM [1, 14] was -26.7% and the activation at 10 µM [1, 15] was -186%. The “0.1 µM (% DMSO)” value (expanded OPCs; [16]) was 212.0 % DMSO, the “1 µM (% DMSO)” value (expanded OPCs; [17]) was 190.0 % DMSO and the “10 µM (% DMSO)” value (expanded OPCs; [18]) was 120.0 % DMSO.
With HTMT the “2 uM (% Quet)” value [1, 19] was -16.4 % Quet, the “10 uM (% Quet)” value [1, 20] was 21.8 % Quet and the “0.1 µM (% DMSO)” value (expanded OPCs; [21]) was 71.6 % DMSO. The “1 µM (% DMSO)” value (expanded OPCs; [22]) was 71.0 % DMSO and the “10 µM (% DMSO)” value (expanded OPCs; [23]) was 63.6 % DMSO.
In the case of Methanesulfonamide, the “2 uM (% Quet)” value [1, 19] is reported as -6.5 % Quet, the “10 uM (% Quet)” value [1, 20] is reported as 5.8 % Quet and the “0.1 µM (% DMSO)” value (expanded OPCs; [21]) is reported as 118.1 % DMSO. The “1 µM (% DMSO)” value (expanded OPCs; [22]) was 132.7 % DMSO and the “10 µM (% DMSO)” value (expanded OPCs; [23]) was 132.9 % DMSO.
